The values below come from ChEMBL document CHEMBL3400054, “Polybrominated diphenyl ethers with potent and broad spectrum antimicrobial activity from the marine sponge Dysidea” (2015).

Values after ≈ are worked out from the molar mass of the structure shown.

Format in all cases: functional
The test system of test [1] is Listeria monocytogenes. Nature of the test: Antimicrobial activity against Listeria monocytogenes incubated at 37 degC for 24 hrs by broth macrodilution method.
Test [2] concerns Bacillus cereus. Nature of the test: Antimicrobial activity against Bacillus cereus incubated at 37 degC for 24 hrs by broth macrodilution method.
For test [3], the system named is Streptococcus pneumoniae. Nature of the test: Antimicrobial activity against Streptococcus pneumoniae incubated at 37 degC for 24 hrs by broth macrodilution method.
Test [4] deals with Clostridioides difficile. Nature of the test: Antimicrobial activity against Clostridium difficile ATCC 9689 incubated at 37 degC for 24 hrs by broth macrodilution method. Particulars: ATCC 9689, 24 h.
In test [5] the test system is Staphylococcus aureus. Put plainly: Antimicrobial activity against methicillin-resistant Staphylococcus aureus incubated at 37 degC for 24 hrs by broth macrodilution method.
Test [6] has as its system Salmonella sp. Put plainly: Antimicrobial activity against Salmonella sp. incubated at 37 degC for 24 hrs by broth macrodilution method.
In test [7] the test system is Escherichia coli. Nature of the test: Antimicrobial activity against Escherichia coli O157:H7 incubated at 37 degC for 24 hrs by broth macrodilution method. Particulars: O157:H7, 24 h.
For test [8], the system named is Klebsiella pneumoniae. Nature of the test: Antimicrobial activity against Klebsiella pneumoniae ATCC 13883 incubated at 37 degC for 24 hrs by broth macrodilution method. Particulars: ATCC 13883, 24 h.
Test [9] has as its system Campylobacter jejuni. Put plainly: Antimicrobial activity against Campylobacter jejuni ATCC 33291 incubated at 37 degC for 24 hrs by broth macrodilution method. Particulars: ATCC 33291, 24 h.
Test [10] has as its system Staphylococcus aureus. Nature of the test: Antimicrobial activity against methicillin-sensitive Staphylococcus aureus incubated at 37 degC for 24 hrs by broth macrodilution method.
Test [11] concerns Pseudomonas. Nature of the test: Antimicrobial activity against Pseudomonas incubated at 37 degC for 24 hrs by broth macrodilution method.
The test system of test [12] is Neisseria gonorrhoeae. Nature of the test: Antimicrobial activity against Neisseria gonorrhoeae incubated at 37 degC for 24 hrs by broth macrodilution method.
The test system of test [13] is Pseudomonas aeruginosa. Nature of the test: Antimicrobial activity against Pseudomonas aeruginosa incubated at 37 degC for 24 hrs by broth macrodilution method.
Test [14] deals with Klebsiella pneumoniae. Put plainly: Antimicrobial activity against Klebsiella pneumoniae.

As for `Oc1c(Br)cc(Br)cc1Oc1ccc(Br)cc1Br`, the minimum inhibitory concentration (MIC) in [1] stood at 1 µg/mL (≈ 1.99 µM); in test [2], 5 µg/mL (≈ 9.96 µM); in [3], 5 µg/mL (≈ 9.96 µM); in test [4], 10 µg/mL (≈ 19.9 µM); in [5] it was 1 µg/mL (≈ 1.99 µM); in test [6], 10 µg/mL (≈ 19.9 µM). For the same compound, the figures for the MIC in test [7], in [8] and in test [9] were 10 µg/mL (≈ 19.9 µM), 5 µg/mL (≈ 9.96 µM) and 5 µg/mL (≈ 9.96 µM), respectively.

Regarding `Oc1cc(Br)cc(Br)c1Oc1ccc(Br)cc1Br`, the MIC in test [10] is 1 µg/mL (≈ 1.99 µM); in [1], 2 µg/mL (≈ 3.99 µM); in test [2], 0.1 µg/mL (≈ 0.199 µM); in test [4] it was 4 µg/mL (≈ 7.97 µM); in test [5], 0.1 µg/mL (≈ 0.199 µM); in [6], 1 µg/mL (≈ 1.99 µM). The MIC in test [7] is 8 µg/mL (≈ 15.9 µM); in [11], 4 µg/mL (≈ 7.97 µM); in [8], 0.1 µg/mL (≈ 0.199 µM); in test [12], 2 µg/mL (≈ 3.99 µM); in [13], 16 µg/mL (≈ 31.9 µM); in test [9], 5 µg/mL (≈ 9.96 µM).

Consider `Oc1cc(Br)c(Br)c(Br)c1Oc1ccc(Br)cc1Br`, for which the minimal inhibitory concentration (MIC) was 0.1 µg/mL (≈ 0.172 µM) in [1]; 10 µg/mL (≈ 17.2 µM) in test [4]; 0.1 µg/mL (≈ 0.172 µM) in test [5]; 10 µg/mL (≈ 17.2 µM) in test [6]; 5 µg/mL (≈ 8.61 µM) in test [9].

Turning to `CO[C@@]1(NC(=O)Cc2cccs2)C(=O)N2C(C(=O)O)=C(COC(N)=O)CS[C@@H]21` [CEFOXITIN], the minimal inhibitory concentration (MIC) worked out at 0.25 µg/mL (≈ 0.585 µM) in test [8] and 2 µg/mL (≈ 4.68 µM) in test [14].

`O=C(O)c1cn(C2CC2)c2cc(N3CCNCC3)c(F)cc2c1=O` [CIPROFLOXACIN]: the minimum inhibitory concentration (MIC) in test [8] came out at 0.125 µg/mL (≈ 0.377 µM); in test [14] it was 0.5 µg/mL (≈ 1.51 µM).

Regarding `C[C@@H](O)[C@H]1C(=O)N2C(C(=O)O)=C(SCCNC=N)C[C@H]12` [IMIPENEM ANHYDROUS], the MIC in [8] and in test [14] was 0.25 µg/mL (≈ 0.835 µM) throughout.
